From patent publication US20050276794A1, “Composition and method for improving pancreatic islet cell survival” (priority 2004, published 2005)

What was measured:
porcine islets = test: Islet morphology under anoxia (photomicrographs); format: cell-based; conditions: 100 μM alone; up to 30 hrs anoxia; versus untreated islets
Description: Porcine islets were hand picked and placed in wells (one islet/well in triplicates) in a 96 micro plate. The islets were pre-incubated either in regular porcine culture media (M199) or in media supplemented with alpha-tocopherol 100 μM, gamma-tocopherol 100 μM or the combination of alpha-+gamma-tocopherol, 50 μM each prior to exposure to anoxia. Islets were then incubated for additional 30 hrs either under normoxia (control—95% Air, 5%CO2) or anoxia (95%N2, 5%CO2) in the presence or absence of the indicated vitamin E concentration. At four different time points (0 h, 12 h, 24 h and 30 h), islets were removed from the incubator, examined microscopically and photomicrographs were obtained. Panel A: Porcine islets cultured with regular porcine culture media (M199) under anoxia. As indicated by the photomicrographs, anoxia caused a significant change in to the islet morphology. […]
Porcine islets were isolated and then cultured for 48 hours according to standard protocols Islets were then cultured for an additional 18-24 hours in media in the presence or absence of alpha-tocopherol and gamma-tocopherol (50 μM each). […] Islet quality was assessed at time intervals ranging from 6 to 24 hours from the initiation of exposure to anoxia with Oxygen Consumption Rate (OCR), ATP, Caspase 3/7 activity measurements (all normalized to DNA), microphotography and transplantation into diabetic nude mice. […]

isolated islet cells = format: cell-based
Description: Single islets were hand-picked from a Petri dish under microscopy and transferred to wells in a 96-well microculture plate. Micronutrients comprising alpha-tocopherol (50 μM), gamma-tocopherol (50 μM), and succinate (5 μM) were added to wells in various combinations, with regular media (no added micronutrients) used as control. Islet cell survival was indicated by maintenance of a more compact cell mass, with disruption of the cell mass indicating islet cell death detected by microscopic means. […] Samples are shown in duplicate (a—middle panel, and b—bottom panel), with the corresponding control in the top panel.

[1] = isolated islet cells in culture medium

Structure (SMILES)	islet morphology after exposure to anoxia (porcine islets)	concentration at which increased benefit is noted (isolated islet cells; [1])	concentration at which protective effect is exhibited (isolated islet cells; [1])	protective benefit for preventing cell death in isolated islet cells (comparison) (isolated islet cells; compared with alpha-tocopherol or either tocopherol alone)
Cc1c(C)c2c(c(C)c1O)CC[C@@](C)(CCC[C@H](C)CCC[C@H](C)CCCC(C)C)O2 [alpha-tocopherol]	more normal morphology	at least 50 μM	at least 10 μM	–
Cc1c(O)cc2c(c1C)O[C@](C)(CCC[C@H](C)CCC[C@H](C)CCCC(C)C)CC2 [gamma-tocopherol]	more normal morphology	–	–	more protective benefit
